Test results reported in patent publication US20050048007A1, “Plaque reducing composition” (INOBYS LTD., priority 2000, published 2005).
Converted amounts (≈) assume the structure as drawn.

Assays:
Experiment in all cases: MIC by serial dilutions in BHI broth (NCCLS)
Type in all cases: cell-based
S. sobrinus = conditions: Streptococcus sobrinus, 37.5 degrees C., 24 hr, turbidity
Text: (§1) Efficacy of this delivery system was shown as follows: 1. Minimum Inhibitory Concentration (MIC)
(§2) High numbers of microorganisms inhabit the oral cavity. Aerobic and anerobic bacteria combine to produce plaque, the soft sticky film adhering to the surface of the teeth. These same bacteria produce sulfur compounds responsible for oral malodor. MIC studies are commonly used to evaluate the potential effectiveness of oral washes and rinses in reducing undesirable bacteria in the oral cavity.
(§3) This […] study evaluates and compares the minimum inhibitory concentration at which two antimicrobial preparations (Solutions A & B) prevent the growth of oral microorganisms recognized as typical of those responsible for plaque and oral malodor formation. Solution A represents Example 1 (above); solution B, 0.1% chlorhexidine, represents a bench mark for efficacy, in that it is commonly accepted and used by oral care professionals to reduce plaque and malodor causing microbes.
(§4) MICs were established using the method of serial dilutions in BHI broth as established by NCCLS (National Committee for Clinical Laboratory Standards). Viable isolates of select strains of oral microbes were obtained commercially and cultured for ongoing use in the study. Serial dilutions of each of the test solutions were added to test tubes containing cultures of each isolate in BHI broth. Tubes were incubated at 37.5 degrees C. for 24 hr. and evaluated for signs of microbial growth (turbidity). Blank tubes of BHI broth, with and without microbial inoculates, were concomitantly run as a control for process sterility and viability.

A. viscosus = conditions: Actinomyces viscosus, 37.5 degrees C., 24 hr, turbidity
Text: as §1, §2, §3, §4

S. sanguinis = conditions: Streptococcus sanguinis, 37.5 degrees C., 24 hr, turbidity
Text: as §1, §2, §3, §4

S. mutans = conditions: Streptococcus mutans, 37.5 degrees C., 24 hr, turbidity
Text: as §1, §2, §3, §4

K. pneumonia = conditions: Klebsiella pneumoniae, 37.5 degrees C., 24 hr, turbidity
Text: as §1, §2, §3, §4

V. atypica = conditions: 37.5 degrees C., 24 hr, turbidity
Text: as §1, §2, §3, §4

MIC (S. sobrinus): 80 µg/mL (≈ 158 µM) | MIC (A. viscosus): 320 µg/mL (≈ 633 µM) | MIC (S. sanguinis): 80 µg/mL (≈ 158 µM) | MIC (S. mutans): 320 µg/mL (≈ 633 µM) | MIC (K. pneumonia): 650 µg/mL (≈ 1290 µM) | MIC (V. atypica): 160 µg/mL (≈ 317 µM)
SMILES: [H]/N=C(\N/C(=N/[H])NCCCCCCNC(=N)NC(=N)Nc1ccc(Cl)cc1)Nc1ccc(Cl)cc1 [0.1% CHX, chlorhexidine]
